Entries after “also recorded” stand apart in the source; their conditions may differ.
What was measured:
CB1 = CB1 (Homo sapiens, UniProt P21554); conditions: cited from earlier work
CB2 = CB2 (Homo sapiens, UniProt P34972); conditions: cited from earlier work
cannabinoid receptors [1] = conditions: cited from earlier work
cannabinoid receptors [2] = conditions: cited from earlier work; remark: listed apart in the source
[3] = Solubilities of pigments in diluents, terpenes and cannabinoids; conditions: in OBP (dipropylene glycol), nexus, terpenes, cannabinoids
Description: Solubilities of Pigments. The present disclosure encompasses solubility embodiments.

Chain of CB2 (P34972 whole entry, species assumed): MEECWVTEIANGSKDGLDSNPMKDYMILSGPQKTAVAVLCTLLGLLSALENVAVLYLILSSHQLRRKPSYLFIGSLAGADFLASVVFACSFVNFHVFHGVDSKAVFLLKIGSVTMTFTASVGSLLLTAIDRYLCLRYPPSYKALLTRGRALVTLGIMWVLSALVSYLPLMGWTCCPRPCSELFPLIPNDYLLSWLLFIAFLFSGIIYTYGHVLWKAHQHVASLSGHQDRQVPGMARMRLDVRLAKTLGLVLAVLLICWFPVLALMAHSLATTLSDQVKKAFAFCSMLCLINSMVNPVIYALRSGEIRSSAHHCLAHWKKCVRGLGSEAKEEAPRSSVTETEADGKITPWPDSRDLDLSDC
Chain of CB1 (P21554 whole entry, species assumed): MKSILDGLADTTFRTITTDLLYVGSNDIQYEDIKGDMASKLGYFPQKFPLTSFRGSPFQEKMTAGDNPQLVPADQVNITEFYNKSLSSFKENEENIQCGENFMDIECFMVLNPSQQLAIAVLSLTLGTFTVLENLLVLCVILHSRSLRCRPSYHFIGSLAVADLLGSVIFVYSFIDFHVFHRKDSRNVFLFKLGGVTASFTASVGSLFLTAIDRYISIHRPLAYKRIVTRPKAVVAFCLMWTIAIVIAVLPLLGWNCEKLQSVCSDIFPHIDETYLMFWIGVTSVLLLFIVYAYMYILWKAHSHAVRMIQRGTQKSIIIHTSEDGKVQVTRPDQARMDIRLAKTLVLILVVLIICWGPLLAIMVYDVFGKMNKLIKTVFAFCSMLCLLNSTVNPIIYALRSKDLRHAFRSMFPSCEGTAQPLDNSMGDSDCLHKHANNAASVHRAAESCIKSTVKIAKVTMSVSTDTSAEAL

Compound | binding to CB1 (CB1) | binding to CB2 (CB2) | potentiation of activity of ligands of cannabinoid receptors (cannabinoid receptors [1]) | potentiation of binding of 2-arachidonoyl-glycerol (cannabinoid receptors [2]) | solubility of pigment [3]
CCCCCCCCCCCCCCCC(=O)NCCO [palmitoylethanolamine] | do not bind | do not bind | potentiate activity of ligands of cannabinoid receptors |  | 
CCCCC/C=C\C/C=C\CCCCCCCC(=O)OC(CO)CO [2-linoleoyl-glycerol] | do not bind | do not bind |  | potentiate the binding of 2-arachidonoyl-glycerol | 
Anthocyanins |  |  |  |  | only soluble in OBP (dipropylene glycol), not it nexus or cannabinoids alone; also recorded: only soluble in dipropylene glycol (i.e. OBP), not in nexus or cannabinoids alone
CCCCCCCCCCCCCCCCCC(=O)NCCO [stearoylethanolamine] | do not bind | do not bind | potentiate activity of ligands of cannabinoid receptors |  | 
CCCCCCCCCCCCCCCC(=O)OC(CO)CO [2-palmitoyl-glycerol] | do not bind | do not bind |  | potentiate the binding of 2-arachidonoyl-glycerol | 
carotene |  |  |  |  | soluble in both obp, nexus, terpenes, and cannabinoids
CC1=C[C@H](O)CC(C)(C)[C@H]1/C=C/C(C)=C/C=C/C(C)=C/C=C/C=C(C)/C=C/C=C(C)/C=C/C1=C(C)C[C@@H](O)CC1(C)C [Lutein] |  |  |  |  | soluble in both obp, nexus, terpenes, and cannabinoids
